Where two headings read alike, the source gives them in different places.
Key:
[1] = Phase 1 single escalating intravenous dose study, safety and pharmacokinetics; type: in vivo, human; details: for C5 / concentration at 5 min: concentration at 5 minutes; for concentration at 5 min: male, human, whole blood, read-out: C5
Method: In the present, first-time-in-man study, the safety and pharmacokinetics of zotarolimus were investigated following intravenous bolus administration of zotarolimus over a 100 to 900 μg dose range. The intravenous bolus dose administration would mimic the most rapid unexpected release of zotarolimus from drug-coated stents in vivo.
This was a Phase 1, single escalating dose, double-blind, randomized, placebo-controlled, single-center study. Sixty (60) adult healthy males were divided into 5 IV dose groups of 100, 300, 500, 700, and 900 μg.
Subjects were randomly assigned to receive a single intravenous dose of zotarolimus or a matching intravenous placebo under fasting conditions, as shown in the dosing scheme shown in Table 9.
Higher doses were administered after evaluating the safety data from the preceding lower dose groups. The treatment groups were separated by at least 7 days. For safety reasons, each treatment group was divided into two cohorts of six subjects and the doses of the two cohorts of a group were separated by at least 1 day.
Doses were administered as IV bolus over 3 minutes, with 8 subjects. Four subjects received zotarolimus and 4 subjects received placebo in each dose group. Blood was sampled for 168 hours and concentrations of zotarolimus measured using LC-MS/MS with a LOQ of 0.20 ng/mL
Seven (7)-mL blood samples were collected by venipuncture into evacuated collection tubes including edetic acid (EDTA) prior to dosing (0 hour) and at 0.083 (5 min), 0.25, 0.5, 1, 2, 4, 8, 12, 16, 24, 36, 48, 72, 96, 120, 144, and 168 hours after dosing on Study Day 1.
Blood concentrations of zotarolimus were determined using a validated liquid/liquid extraction HPLC tandem mass spectrometric method LC-MS/MS). […] AU calibration curves had coefficient of determination (r^2) values greater than or equal to 0.9923.
Safety was evaluated based on adverse event, physical examination, vital signs, ECG, injection site and laboratory tests assessments.
Pharmacokinetic parameter values of zotarolimus were estimated using noncompartmental methods.
To investigate the questions of dose proportionality and linear pharmacokinetics, an analysis of covariance (ANCOVA) was performed. Subjects were classified by dose level, and body weight was a covariate. The variables analyzed included β, Vdβ, dose-normalized C5, and logarithms of dose-normalized AUC0-last and dose-normalized AUC0-inf. The primary test of the hypothesis of invariance with dose was a test on dose-level effects with good power for a monotonic function of dose. In addition, the highest and lowest dose levels were compared within the framework of the ANCOVA.

[2] = system: human coronary artery smooth muscle cells (hCaSMC); test: 3H-thymidine uptake proliferation assay, hCaSMC; type: cell-based; details: Homo sapiens, 3 h; read-out: hCaSMC IC50 Mean ± SEM
Method: Experiments were performed to investigate interactions between zotarolimus and the corticosteroid dexamethasone. The effect of dexamethasone on the antiproliferative activity of zotarolimus in human coronary artery smooth muscle ([…]) and endothelial […] determined using an in vitro proliferation assay. The proliferation and migration of vascular smooth muscle cells into the vascular neointima is a characteristic pathologic response seen in restenotic lesions (A. Lafont and P. Libby, The smooth muscle cell: sinner or saint in restenosis and the acute coronary syndromes? […] As a result, in vitro assays which specifically measure the antiproliferative activity of candidate anti-restenotic compounds on human coronary artery smooth muscle and endothelial cells should predict potential anti-restenotic activity in vivo. The tritium incorporation assay is an accurate and sensitive method used in the art to determine cell number and proliferation. Compounds or combinations of compounds which attenuate growth factor-mediated human coronary artery smooth muscle cell […]) proliferation, as measured by the tritium incorporation assay in vitro, are candidate anti-restenotic agents. […] Cell proliferation was monitored by following incorporation of ^3H-thymidine into newly synthesized DNA of cells stimulated by serum and growth factors. Exponentially growing […] were seeded into 96-well flat bottom tissue culture plates at 5,000 cells/well (10,000 cells/well for […]). The cells were allowed to attach overnight. The growth medium was removed the following day and cells were washed twice with unsupplemented (basal) medium to remove traces of serum and growth factors. Basal medium (200 μl) was added to each well and the cells incubated in medium lacking growth factors and serum to starve and synchronize them in the G0 state. After starvation (48 hours for […] and 39 hours for […]) in medium lacking serum and growth factors, the cells were replenished with 200 μl supplemented medium in the absence or presence of drugs at the desired concentrations. […] After a 72-hour incubation period, 25 μl (1 μCi/well) of ^3H-thymidine (Amersham Biosciences) were added to each well. The cells were incubated at 37° C. for 16-18 hours to allow incorporation of ^3H-thymidine into newly synthesized DNA and the cells harvested onto 96-well plates containing bonded glass fiber filters using a cell harvester (Harvester 9600, TOMTEC). […] Controls included medium only, starved cells and cells in complete medium. Drug activity was established by determining the inhibition of ^3H-thymidine incorporation into newly synthesized DNA relative to cells grown in complete medium. […] The final IC50s are means of the 3-4 experiments. In these experiments, the x-axis represents the concentration of the drug being varied. For most of these curves that is zotarolimus alone and in combination with a fixed concentration of dexamethasone. Each graph contains a dexamethasone alone curve and a zotarolimus alone curve. The set of curves in each graph is generated by adding dexamethasone at a fixed concentration (1, 5, 10 or 25 nM) to various concentrations of zotarolimus (0, 0.04, 0.08, 0.8, 4, 8, 40 nM). Each curve represents the dose-response of zotarolimus (whose concentration is given on the x-axis) in the presence of the fixed concentration of dexamethasone given in the legend). […] The concentration eliciting a specific antiproliferative effect was determined using a 4-parameter equation (Equation 1). […]

[3] = 100 μg single IV bolus, healthy males, blood
[4] = 300 μg single IV bolus, healthy males, blood
[5] = 500 μg single IV bolus, healthy males, blood
[6] = 700 μg single IV bolus, healthy males, blood
[7] = 900 μg single IV bolus, healthy males, blood

**Q.** What does the source list for `CO[C@H]1C[C@@H]2CC[C@@H](C)[C@@](O)(O2)C(=O)C(=O)N2CCCC[C@H]2C(=O)O[C@H]([C@H](C)C[C@@H]2CC[C@H](n3cnnn3)[C@H](OC)C2)CC(=O)[C@H](C)/C=C(\C)[C@@H](O)[C@@H](OC)C(=O)[C@H](C)C[C@H](C)/C=C/C=C/C=C/1C` [zotarolimus]?
**A.** C5 [1, 3]: 13.48 ng/mL; C5 [1, 4]: 36.71 ng/mL; C5/Dose [1, 5]: 0.11 ± 0.0005 ng/mL/µg; β (elimination rate constant) [1, 5]: 0.017 ± 0.003 h⁻¹; CL [1, 6]: 3.18 L/h; C5 [1, 6]: 88.73 ng/mL; C5 [1, 7]: 110.78 ng/mL; concentration at 5 min [1, 3]: 13.5 ± 2.87 ng/mL; concentration at 5 min [1, 4]: 36.7 ± 9.82 ng/mL; concentration at 5 min [1, 6]: 88.7 ± 5 ng/mL; concentration at 5 min [1, 7]: 111 ± 15.9 ng/mL; tolerability ([1]; single IV doses of 100 to 900 μg, healthy males): well tolerated at all doses; most common treatment-emergent adverse events ([1]; single IV doses of 100 to 900 μg, reported by two or more subjects in any one treatment group): injection site reaction and pain; dose proportionality of pharmacokinetics ([1]; with respect to C5 and AUC0-inf, IV): dose-proportional over the 100-900 μg dose range; IC50 [2]: 6.2 ± 1.2 nM
